Experimental data as given in patent US9381191B2, “Imidazopyridine derivatives useful in treating diabetes” (METABRAIN RESEARCH, priority 2012, dated 2016).

Legend:
INS-1 cells = assay: Stimulation test of insulin secretion by INS-1 cells; format: cell-based; conditions: Rattus norvegicus, INS1, 1 h, insulin secretion by INS-1 cells in response to glucose; for insulin secretion, % of control at 10 µM: read-out: HGP % of ctrl @ 10 μM; for insulin secretion, % of control at 50 µM: read-out: HGP % of ctrl @ 50 μM
Description: The different compounds were tested on an INS-1 beta-pancreatic line in order to evaluate their capability of potentializing the insulin secretion in response to glucose. Very briefly, the cells are cultivated in a culture medium, RPMI 1640 with 10 mM glucose containing 1 mM of sodium pyruvate, 50 μM of 2-mercaptoethanol, 2 mM of glutamine, 10 mM of HEPES, 100 IU/ml of penicillin, 100 μg/ml of streptomycin and 10% of inactivated fetal calf serum, as described by Asfari et al.. For the insulin secretion test, the INS-1 cells are sown and cultivated in 96-well plates. After 3 days of cultivation at 37° C. in a humid atmosphere (95% air/5% CO2), the medium is removed and the cells are incubated for 16 h in a medium containing 5 mM of glucose and 1% of inactivated fetal calf serum. On the day of the test, the cells are washed with a Krebs buffer (pH 7.4) containing 0.1% of bovine albumin and then pre-incubated for 30 min at 37° C. in this same buffer containing 2.8 mM of glucose. Finally, the cells are again washed with Krebs buffer and then incubated for 1 h in the buffer of the secretion test (Krebs, pH 7.4 containing 0.1% of bovine albumin and 3.5 mM of glucose and molecules to be evaluated). At the end of the test, the cell supernatant is recovered in order to measure therein the secreted insulin, by means of an ELISA kit using a rat anti-insulin antibody (ELISA Alpco Cat no. 80-INSRTH-E10). Each condition is tested in triplicate. The 3.5 mM glucose, the 10^−7M GLP-1 and the Forskoline 10^−7/IBMX 10^−5M mixtures are used as positive controls of the test. A compound stimulates the secretion of insulin if this factor is greater than or equal to 130% of the control for a given glucose dose.

isolated rat hepatocytes [1] = assay: Hepatic production of glucose, 20 h incubation; format: cell-based, Wistar rat; conditions: for HGP % of ctrl @ 50 μM / HGP % of ctrl @ 100 μM: rat hepatocytes
Description: (§1) The hepatocytes are isolated from Wistar rat liver having fasted for 24 h after perfusion of collagenase in the portal vein. 1) The freshly isolated hepatocytes are sown in 6-well plates coated with collagen and containing an adhesion medium (Williams Medium). After adhesion, the medium is replaced with RPMI 1640 medium without any glucose, containing hydrocortisone (7·10^−5M) for a duration from 16 to 18 h. The next day, the glucose hepatic production test is conducted in a Krebs medium for 3 h. The basal conditions are cells incubated with only Krebs, the stimulated conditions are the cells placed in Krebs+lactate+pyruvate, the produced conditions are the cells exposed to chemical compounds in a Krebs/lactate/pyruvate medium. In the case when the compounds are dissolved in DMSO, all the conditions of the tests are met in the presence of a final concentration of 0.1% DMSO. The positive control of the test is the mercaptopicolinate known for its inhibitory action on hepatic production of glucose via the phosphoenolpyruvate carboxykinase. For short term treatments, the compounds are incubated for 3 h. For long term treatments, the compounds are incubated for 20 h at the moment when the hepatocytes are cultivated in RPMI and then added during the hepatic production test for 3 h. At the end of the 3 hours of incubation, the supernatant is recovered for measurement of glucose with a colorimetric method using glucose oxidase. The cells are lysed with a 0.1% NaOH aqueous solution in order to measure the amount of protein with the Lowry method. The results are expressed in mmol of glucose per mg of protein.

GK rats = assay: Antidiabetic activity in GK (Goto-Kakisaki) rats; format: in vivo, rat; conditions: single oral dose 50 mg/kg
Description: The antidiabetic activity of compound 118 was evaluated in GK rats, a non-obese model of diabetes of type II. This model was obtained by cross-breeding of Wistar rats selected on the basis of a slight intolerance to glucose. These rats have the majority of dysfunctions observed in diabetes of type II in humans: hyperglycaemia, intolerance to glucose, insulin-resistance, and deteriorated insulin response to glucose. These animals were bred at Metabrain and were housed in an animal housing facility with a regulated temperature (22±2° C.) under constant humidity (50±20%) with a day/night cycle of 12 h (light from 7 h-19 h) and have access ad libitum to food and drink. The housing and experimentation conditions comply with the European directives relating to health and ethical treatment of laboratory animals (ETS123). In this study, the rats used are male 16-week old GK rats having fasted for 2 hours before beginning the study (postabsorptive condition). Monitoring of glycaemia is carried out on 2 groups of rats: One group treated with the compound 118 orally at the single dose of 50 mg/kg and a control group treated orally with the carrier. A blood sample was taken at T0 just before administration of the compound 118 or of the carrier and at times T1 h, T2 h, T4 h and T6 h after administration. The determination of glycaemia is achieved from a drop of blood taken from the tail measured with a glucometer Accu-Check Performa. The results shown below are expressed as a percentage of the decrease of glycaemia at T1 h, T2 h, T4 h and T6 h for the group treated with the compound 118 as compared with the control group

isolated rat hepatocytes [2] = assay: Hepatic production of glucose, 3 h incubation; format: cell-based, Wistar rat; conditions: for activity at 50 µM / activity at 100 µM: Hepatocyte, rat hepatocytes; for activity at 50 µM: read-out: HGP % of ctrl @ 50 μM; for activity at 100 µM: read-out: HGP % of ctrl @ 100 μM
Description: as §1

[3] = system: isolated perfused pancreases of N0STZ diabetic rats; assay: Insulin secretion in response to glucose at isolated perfused pancreases of N0STZ diabetic rats; set-up: species or system rat; conditions: glucose 16.5 mM, control group 560 ± 71
Description: The pancreas was taken on rats made to be diabetic by injection of Streptozotocin on the day of birth and anaesthetized with Pentobarbital (Nembutal©: 45 mg/kg; intraperitoneal route). These rats have a specific deficiency of the insulin response to glucose, as observed in humans with diabetes of type II. The isolation and the perfusion of the pancreas were achieved according to a modification of the procedure described by Sussman et al.. The effect of the compounds or reference substances is tested for 35 minutes (from t=20 min to t=55 min) in Krebs buffer, and then 20 minutes (from t=55 min to t=75 min) in the presence of glucose 16.5 mM. The concentration of insulin secreted into the medium is measured by an Elisa assay (ELISA Alpco Cat no. 80-INSRTH-E10). The results are expressed as an average +/−SEM (Standard Error of the Mean) of several experiments.

| Compound | insulin secretion, % of control at 10 µM (INS-1 cells) [%] | insulin secretion, % of control at 50 µM (INS-1 cells) [%] | HGP % of ctrl @ 50 μM (isolated rat hepatocytes [1]) | HGP % of ctrl @ 100 μM (isolated rat hepatocytes [1]) | activity at 50 µM (isolated rat hepatocytes [2]) [%] | activity at 100 µM (isolated rat hepatocytes [2]) [%] | other results |
| --- | --- | --- | --- | --- | --- | --- | --- |
| CCOC(=O)COCc1nc2ccccn2c1C#Cc1cccc(OC)c1 [Derivative 12, ethyl 2-((3-((3-methoxyphenyl)-ethynyl)imidazo[1,2-a]pyridin-2-yl)methoxy)acetate] | 123 | 204 | 89 % of ctrl | 54 % of ctrl |  |  |  |
| O=C(O)CSCc1nc2ccc(Cl)cn2c1C#Cc1cccc(C(F)(F)F)c1 [Derivative 118, 2-[[6-chloro-3-[2-[3-(trifluoro-methyl)-phenyl]ethynyl]imidazo[1,2-a]pyridin-2-yl]methylsulfanyl] acetic acid] |  |  | 57 % of ctrl |  |  |  | % of activity on glycemia (GK rats; T1 h after administration, p = 0.0242): −14%; % of activity on glycemia (GK rats; T2 h after administration, p = 0.0171): −15%; % of activity on glycemia (GK rats; T4 h after administration, p = 0.1468 NS): −10%; % of activity on glycemia (GK rats; T6 h after administration, p = 0.2450 NS): −8%; reduction of hyperglycaemia (GK rats): capable of reducing hyperglycaemia |
| CCOC(=O)CSCc1nc2ccc(Cl)cn2c1C#Cc1ccc(F)cc1 [Derivative 110, ethyl 2-[[6-chloro-3-[2-[4-(fluoro)-phenyl]ethynyl]imidazo[1,2-a]pyridin-2-yl]methylsulfanyl]acetate] | 162 | 140 |  |  | 50 | 37 | inhibition of hepatic production of glucose (isolated rat hepatocytes [2]; with two doses): strongest inhibitions |
| O=C(COCc1nc2ccccn2c1C#Cc1ccc(F)cc1)NO [Derivative 59, 2-((3-((4-fluorophenyl)ethynyl)-imidazo[1,2-a]pyridin-2-yl)methoxy)-N-hydroxy acetamide] | 134 | 220 |  |  | 97 | 45 | inhibition of hepatic production of glucose (isolated rat hepatocytes [2]; dose of 100 μM): strongest inhibitions |
| O=C(O)COCc1nc2ccccn2c1C#Cc1ccc(F)cc1 [Derivative 44, 2-((3-((4-fluorophenyl)ethynyl)-imidazo[1,2-a]pyridin-2-yl)methoxy)acetic acid] |  |  |  |  |  |  | Insulin secretion peak at G16.5 mM, Tested product ([3]; tested concentration 10 μM): 1 724 μU/min. |
| COC(=O)c1ccccc1OCc1nc2ccccn2c1C#Cc1ccc(F)cc1 [Derivative 76, methyl 2-((3-((4-fluorophenyl)-ethynyl)imidazo[1,2-a]pyridin-2-yl)methoxy)benzoate] | 156 | 202 |  |  | 67 | 59 | inhibition of hepatic production of glucose (isolated rat hepatocytes [2]; dose of 100 μM): strongest inhibitions |
| COC(=O)c1ccccc1OCc1nc2ccccn2c1C#Cc1cccc(C#N)c1 [Derivative 79, methyl 2-((3-((3-cyanophenyl)-ethynyl)imidazo[1,2-a]pyridin-2-yl)methoxy)benzoate] | 128 | 152 |  |  | 86 | 74 |  |
| CC(C)OC(=O)COCc1nc2ccccn2c1C#Cc1ccc(F)cc1 [Derivative 54, isopropyl 2-((3-((4-fluorophenyl)ethynyl)imidazo [1,2-a]pyridin-2-yl)methoxy) acetate] | 203 |  | 64 % of ctrl | 44 % of ctrl |  |  | Insulin secretion peak at G16.5 mM, Tested product ([3]; tested concentration 1 μM): 961 ± 130 μU/min.; Insulin secretion peak at G16.5 mM, Tested product ([3]; tested concentration 10 μM): 1 637 μU/min. |
| O=C(O)CSCc1nc2ccc(Cl)cn2c1C#Cc1ccc(F)cc1 [Derivative 117, 2-[[6-chloro-3-[2-(4-fluorophenyl)ethynyl]imidazo [1,2-a]pyridin-2-yl]methylsulfanyl]acetic acid] | 130 | 137 |  |  | 55 | 43 | inhibition of hepatic production of glucose (isolated rat hepatocytes [2]; with two doses): strongest inhibitions |
| CCOC(=O)COCc1nc2ccccn2c1C#Cc1ccccc1C(F)(F)F [Derivative 26, ethyl 2-((3-((2-(trifluoromethyl)-phenyl)ethynyl)imidazo[1,2-a]pyridin-2-yl)methoxy)acetate] | 138 | 246 |  |  | 78 | 67 |  |
| CCONC(=O)COCc1nc2ccccn2c1C#Cc1ccc(F)cc1 [Derivative 58, N-ethoxy-2-((3-((4-fluorophenyl)ethynyl)imidazo [1,2-a]pyridin-2-yl)methoxy) acetamide] | 127 | 233 | 32 % of ctrl | 17 % of ctrl |  |  | inhibition of hepatic production of glucose (isolated rat hepatocytes [1]): strongest inhibitions |
| CCOC(=O)CSCc1nc2ccc(Cl)cn2c1C#Cc1cccc(C(F)(F)F)c1 [Derivative 111, ethyl 2-[[6-chloro-3-[2-[3-(trifluoro-methyl)phenyl]ethynyl]imidazo [1,2-a]pyridin-2-yl]methylsulfanyl]acetate] | 136 | 173 |  |  | 73 | 27 | inhibition of hepatic production of glucose (isolated rat hepatocytes [2]; dose of 100 μM): strongest inhibitions |
| O=C([O-])COCc1nc2ccccn2c1C#Cc1ccc(F)cc1.[Na+] [Derivative 46, sodium 2-((3-((4-fluorophenyl)-ethynyl)imidazo[1,2-a]pyridin-2-yl)methoxy)acetate] |  |  | 93 % of ctrl | 52 % of ctrl | 85 | 69 |  |
